Experimental data: publication PMC8512631, “Structural Basis for PPARs Activation by The Dual PPARα/γ Agonist Sanguinarine: A Unique Mode of Ligand Recognition” (Molecules, 2021)
Changes are numbered by the printed parent chain. No end group written: not given here. *: point of attachment. Biotin = O=C1N[C@H]2[C@H](CS[C@H]2CCCCC(=O)*)N1

Legend:
PPARα = molecular target: T1, PPARα (Homo sapiens, UniProt Q07869); assay: thermal shift assay of LBD with SRC1 peptide; GAL4 reporter at […]; format: binding
T1 construct: gene PPARA; LBD
T1 sequence (Q15788 2-1441 partner, one chain of several): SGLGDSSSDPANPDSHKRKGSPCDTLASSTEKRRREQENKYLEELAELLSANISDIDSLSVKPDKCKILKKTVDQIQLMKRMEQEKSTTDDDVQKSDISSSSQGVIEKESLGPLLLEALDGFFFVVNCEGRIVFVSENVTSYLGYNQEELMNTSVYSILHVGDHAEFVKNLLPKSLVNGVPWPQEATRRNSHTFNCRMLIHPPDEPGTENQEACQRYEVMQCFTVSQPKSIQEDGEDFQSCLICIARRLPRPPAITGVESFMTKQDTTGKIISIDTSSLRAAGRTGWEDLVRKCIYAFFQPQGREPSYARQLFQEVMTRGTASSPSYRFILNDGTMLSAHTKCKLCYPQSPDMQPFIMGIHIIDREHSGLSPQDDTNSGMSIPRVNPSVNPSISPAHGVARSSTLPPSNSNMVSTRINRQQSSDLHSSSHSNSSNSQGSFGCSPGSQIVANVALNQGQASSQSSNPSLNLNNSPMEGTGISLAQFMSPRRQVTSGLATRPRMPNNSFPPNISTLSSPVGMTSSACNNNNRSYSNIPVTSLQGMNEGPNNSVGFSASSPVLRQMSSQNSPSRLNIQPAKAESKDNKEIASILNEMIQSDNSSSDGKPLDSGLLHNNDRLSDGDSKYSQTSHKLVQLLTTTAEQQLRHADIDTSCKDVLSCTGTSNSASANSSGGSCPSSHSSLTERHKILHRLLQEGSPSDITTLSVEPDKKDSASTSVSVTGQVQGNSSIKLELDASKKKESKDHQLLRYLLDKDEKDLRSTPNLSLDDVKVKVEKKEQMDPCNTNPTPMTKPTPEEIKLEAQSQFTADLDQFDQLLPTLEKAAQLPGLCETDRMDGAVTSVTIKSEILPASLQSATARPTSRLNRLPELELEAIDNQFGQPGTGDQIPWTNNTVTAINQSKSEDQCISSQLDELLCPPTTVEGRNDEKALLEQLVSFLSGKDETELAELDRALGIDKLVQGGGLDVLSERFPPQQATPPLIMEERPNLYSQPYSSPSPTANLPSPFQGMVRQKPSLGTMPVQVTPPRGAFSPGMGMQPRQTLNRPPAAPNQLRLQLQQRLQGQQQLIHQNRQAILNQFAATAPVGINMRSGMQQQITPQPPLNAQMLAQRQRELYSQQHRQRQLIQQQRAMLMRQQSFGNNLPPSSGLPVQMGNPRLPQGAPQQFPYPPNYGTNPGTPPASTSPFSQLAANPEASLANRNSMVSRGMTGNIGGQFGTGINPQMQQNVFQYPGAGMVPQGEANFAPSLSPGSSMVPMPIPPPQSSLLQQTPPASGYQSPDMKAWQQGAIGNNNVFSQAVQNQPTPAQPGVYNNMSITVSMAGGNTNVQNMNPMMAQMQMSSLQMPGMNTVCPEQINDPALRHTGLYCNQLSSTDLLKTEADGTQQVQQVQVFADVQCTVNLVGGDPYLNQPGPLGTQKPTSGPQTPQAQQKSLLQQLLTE

PPARδ [1] = molecular target: T2, PPARδ (Homo sapiens, UniProt Q03181, R248A); assay: PPRE luciferase reporter in […] cells, […]; format: cell-based
T2 construct: gene PPARD; full-length
T2 sequence (Q03181 1-441 R248A): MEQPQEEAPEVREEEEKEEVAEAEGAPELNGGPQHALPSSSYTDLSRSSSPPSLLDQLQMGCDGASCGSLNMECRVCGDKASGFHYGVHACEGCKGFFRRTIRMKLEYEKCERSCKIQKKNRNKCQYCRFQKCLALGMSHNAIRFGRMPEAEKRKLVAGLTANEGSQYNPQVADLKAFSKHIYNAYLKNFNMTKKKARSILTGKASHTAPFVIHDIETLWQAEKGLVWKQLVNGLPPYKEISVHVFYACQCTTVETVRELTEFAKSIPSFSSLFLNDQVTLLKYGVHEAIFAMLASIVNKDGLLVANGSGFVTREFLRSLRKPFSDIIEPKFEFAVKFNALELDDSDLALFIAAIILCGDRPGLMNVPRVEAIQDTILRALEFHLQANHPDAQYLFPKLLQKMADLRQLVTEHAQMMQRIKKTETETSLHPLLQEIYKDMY

PPARδ [2] = molecular target: T3, PPARδ (Homo sapiens, UniProt Q03181, H244A); assay: PPRE luciferase reporter in […] cells, […]; format: cell-based
T3 construct: gene PPARD; full-length
T3 sequence (Q03181 1-441 H244A): T2 sequence (Q03181 1-441 R248A) with H244A, A248R

[3] = molecular target: T4, human PPARα ligand-binding domain (residues 196-468) (human, UniProt Q07869-1 196-468); assay: AlphaScreen or HTRF; approximately 20–40 nM PPAR LBDs on nickel chelate acceptor beads, 20 nM biotinylated co-factor peptides on streptavidin donor beads; 50 mM MOPS, 50 mM NaF, 0.05 mM CHAPS, 0.1 mg/mL BSA, pH 7.4; in response to 1 μM sanguinarine; details: both partners purified
T4 construct: Expressed from pET24a; The methods describe only this PPARα-LBD construct; also called PPARα–LBD; source: E. coli BL21 (DE3), purified (Ni HiTrap, gel filtration Superdex 200); not shown: His6, N-terminal, kept
T4 sequence (looked up): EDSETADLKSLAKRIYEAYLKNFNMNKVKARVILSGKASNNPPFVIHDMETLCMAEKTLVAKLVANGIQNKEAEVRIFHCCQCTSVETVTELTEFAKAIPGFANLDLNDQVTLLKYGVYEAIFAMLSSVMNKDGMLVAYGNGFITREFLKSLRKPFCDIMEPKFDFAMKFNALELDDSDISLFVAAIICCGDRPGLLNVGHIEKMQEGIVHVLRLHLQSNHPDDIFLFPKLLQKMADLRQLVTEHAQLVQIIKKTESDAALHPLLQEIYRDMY

Cc1nc(-c2ccc(C(F)(F)F)cc2)sc1C(=O)NCc1ccc(OC(C)(C)C(=O)O)cc1 [GW590735]
thermal shift assay of LBD with SRC1 peptide; GAL4 reporter at 1 μM (PPARα): thermal shift assay showed that SRC1 increased the thermal stability of sanguinarine–PPARα, compared with GW735–PPARα

C[n+]1cc2c3c(ccc2c2ccc4cc5c(cc4c21)OCO5)OCO3 [sanguinarine]
PPRE luciferase reporter in 293T cells, 1 μM (PPARδ [1]): sanguinarine activated the transcriptional activity of PPARδ–R248A mutation, in contrast to wild-type PPARδ | PPRE luciferase reporter in 293T cells, 1 μM (PPARδ [2]): the H244A mutation enables PPARδ to respond to sanguinarine treatment

Biotin-SPSSHSSLTERHKILHRLLQEGSP [biotinylated SRC1-2 co-activator LXXLL motif peptide]
binding result [3]: binds

Biotin-QEPVSPKKKENALLRYLLDKDDTKD [biotinylated SRC2-3 co-activator LXXLL motif peptide]
binding result [3]: binds

Biotin-PDAASKHKQLSELLRGGSG (the parent protein is in doubt) [biotinylated SRC3-3 co-activator LXXLL motif peptide]
binding result [3]: binds
